Measured values: PMC4224565 (Molecular Pharmaceutics, 2014)

Assays:
INS-1 tumor mice = experiment: Ex vivo biodistribution in INS-1 tumor mice; set-up: species or system mouse; settings: control group, dissected tissue, γ-counter, 2 h post injection, n = 5, mean ± SD
dipeptidyl-peptidase-IV = settings: degraded by dipeptidyl-peptidase-IV via cleavage of two N-terminal residues; cited from earlier work

Row | Molecule | INS-1 tumor uptake (biodistribution) (INS-1 tumor mice) | half-life in vivo (dipeptidyl-peptidase-IV)
1 | O=C(NCCN1C(=O)C=CC1=O)c1ccc(F)nc1 [[^18F]FNEM, N-(2-(2,5-Dioxo-2,5-dihydro-1H-pyrrol-1-yl)ethyl)-6-fluoronicotinamide] | 23.06 ± 3.87%ID/g | 
2 | GLP-1: glucose-dependent hormone released mainly from the small intestine |  | less than 2 min
